Measured values: patent publication US11702427B2 (priority 2018, dated 2023)

What follows are compounds tested on HBsAg (assay: HBsAg assay: inhibition of HBsAg in HepG2.2.15 cells (CLIA immunoassay of supernatant)). Details: Hepatitis B virus, HepG2.2.15, 144 h, read-out: sAg EC50, HepG2.2.15 cells; supernatant collected at day 6 after exposure; HBsAg chemiluminescence immunoassay.
Type: cell-based, hepatitis B virus (HBV)
Method in brief: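 HepG2.2.15 cells (30,000/well) exposed to serially diluted compound (0.5% DMSO) for 2–3 days, then re-dosed in fresh medium for 3–4 more days. On day 6, supernatant HBsAg quantified by chemiluminescence immunoassay; EC50 from dose-response curves. Viability measured separately by CellTiter-Glo.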
In the case of `COCCCOc1cc2c(nc1C1CC1)-c1[nH]c(=O)c(C(=O)O)cc1C(C(C)C)C2` (stereo not drawn) [Example 56, 9-Cyclopropyl-5-isopropyl-8-(3-methoxypropoxy)-2-oxo-1,2,5,6-tetrahydro-1,10-phenanthroline-3-carboxylicacid], the EC50 is reported as 1 nM.
Work on `COCCCOc1cc2c(cc1OC)-c1[nH]c(=O)c(-c3ncn[nH]3)c(O)c1C(C(C)C)C2` (stereo not drawn) [Example 57, 4-Hydroxy-5-isopropyl-9-methoxy-8-(3-methoxypropoxy)-3-(1H-1,2,4-triazol-5-yl)-5,6-dihydrobenzo[h]quinolin-2(1H)-one] yielded an EC50 of 11 nM.
Work on `COCCCOc1cc2c(cc1OC)-c1[nH]c(=O)c(C(N)=O)c(O)c1C(C(C)C)C2` (stereo not drawn) [Example 58, 4-Hydroxy-5-isopropyl-9-methoxy-8-(3-methoxypropoxy)-2-oxo-1,2,5,6-tetrahydrobenzo[h]quinoline-3-carboxamide] yielded an EC50 of 20 nM.
For `COCCCOc1cc2c(nc1OC)-c1[nH]c(=O)c(C(N)=O)c(O)c1C(C(C)(C)C)C2` (stereo not drawn) [Example 59, 5-(tert-Butyl)-4-hydroxy-9-methoxy-8-(3-methoxypropoxy)-2-oxo-1,2,5,6-tetrahydro-1,10-phenanthroline-3-carboxamide], the EC50 was 3 nM.
`COCCCOc1cc2c(nc1OC)-c1[nH]c(=O)c(C(N)=O)cc1C(C(C)(C)C)C2` (stereo not drawn) [Example 62, 5-(tert-Butyl)-9-methoxy-8-(3-methoxypropoxy)-2-oxo-1,2,5,6-tetrahydro-1,10-phenanthroline-3-carboxamide] gave an EC50 of 25 nM.
With `CNC(=O)c1c(O)c2c([nH]c1=O)-c1nc(OC)c(OCCCOC)cc1CC2C(C)(C)C` (stereo not drawn) [Example 63, 5-(tert-Butyl)-4-hydroxy-9-methoxy-8-(3-methoxypropoxy)-N-methyl-2-oxo-1,2,5,6-tetrahydro-1,10-phenanthroline-3-carboxamide] the EC50 was 18 nM.
`COCCCOc1cc2c(nc1OC)-c1[nH]c(=O)c(C(=O)N(C)C)c(O)c1C(C(C)(C)C)C2` (stereo not drawn) [Example 64] was tested, and the EC50 was 2000 nM.
`COCCCOc1cc2c(nc1OC)-c1[nH]c(=O)c(C(=O)NO)c(O)c1C(C(C)(C)C)C2` (stereo not drawn) [Example 65, 5-(tert-Butyl)-N,4-dihydroxy-9-methoxy-8-(3-methoxypropoxy)-2-oxo-1,2,5,6-tetrahydro-1,10-phenanthroline-3-carboxamide] was tested, and the EC50 was 2 nM.
`COCCCOc1cc2c(cc1OC)-c1[nH]c(=O)c(C(=O)NO)c(O)c1C(C(C)C)C2` (stereo not drawn) [Example 66, N,4-Dihydroxy-5-isopropyl-9-methoxy-8-(3-methoxypropoxy)-2-oxo-1,2,5,6-tetrahydrobenzo[h]quinoline-3-carboxamide] gave an EC50 of 41 nM.
For `COCCCOc1cc2c(nc1OC)-c1[nH]c(=O)c(C(=O)NO)cc1C(C(C)(C)C)C2` (stereo not drawn) [Example 67, 5-(tert-Butyl)-N-hydroxy-9-methoxy-8-(3-methoxypropoxy)-2-oxo-1,2,5,6-tetrahydro-1,10-phenanthroline-3-carboxamide], the EC50 was 5 nM.
Work on `COCCCOc1cc2c(nc1OC)-c1nc(Cl)c(C(=O)O)c(Cl)c1C(C(C)(C)C)C2` (stereo not drawn) [Example 68, 5-(tert-Butyl)-2,4-dichloro-9-methoxy-8-(3-methoxypropoxy)-5,6-dihydro-1,10-phenanthroline-3-carboxylicacid] yielded an EC50 of 10000 nM.
`COCCCOc1cc2c(cc1Cl)-c1[nH]c(=O)c(C(=O)O)cc1[C@H](C(C)C)CO2` [Example 69, (S)-10-Chloro-5-isopropyl-9-(3-methoxypropoxy)-2-oxo-1,2,5,6-tetrahydrobenzo[2,3]oxepino[4,5-b]pyridine-3-carboxylicacid] was tested, and the EC50 was 200 nM.
Compound `COCCCOc1cc2c(cc1Cl)-c1[nH]c(=O)c(C(=O)O)c(O)c1[C@H](C(C)C)CO2` [Example 70, (S)-10-Chloro-4-hydroxy-5-isopropyl-9-(3-methoxypropoxy)-2-oxo-1,2,5,6-tetrahydrobenzo[2,3]oxepino[4,5-b]pyridine-3-carboxylic acid] has an EC50 of 120 nM.
In the case of `COCCCOc1cc2c(cc1COC)-c1[nH]c(=O)c(C(=O)O)c(O)c1[C@H](C(C)C)CO2` [Example 71, (S)-4-Hydroxy-5-isopropyl-10-(methoxymethyl)-9-(3-methoxypropoxy)-2-oxo-1,2,5,6-tetrahydrobenzo[2,3]oxepino[4,5-b]pyridine-3-carboxylicacid], the EC50 is reported as 280 nM.
`COCCCOc1cc2c(cc1CCOC)-c1[nH]c(=O)c(C(=O)O)c(O)c1[C@H](C(C)C)CO2` [Example 72, (S)-4-Hydroxy-5-isopropyl-10-(2-methoxyethyl)-9-(3-methoxypropoxy)-2-oxo-1,2,5,6-tetrahydrobenzo[2,3]oxepino[4,5-b]pyridine-3-carboxylic acid] was tested, and the EC50 was 600 nM.
For `COCCCOc1cc2c(cc1OC)-c1[nH]c(=O)c(C(=O)O)cc1C1(CCCCC1)C2` [Example 73, 9-Methoxy-8-(3-methoxypropoxy)-2-oxo-2,6-dihydro-1H-spiro[benzo[h]quinoline-5,1′-cyclohexane]-3-carboxylic acid], the EC50 was 110 nM.
For `COCCCOc1cc2c(nc1Cl)-c1[nH]c(=O)c(C(=O)O)c(O)c1C(C(C)C)CO2` (stereo not drawn) [Example 74, 2-Chloro-8-hydroxy-7-isopropyl-3-(3-methoxypropoxy)-10-oxo-6,7,10,11-tetrahydrooxepino[3,2-b:4,5-b′]dipyridine-9-carboxylic acid], the EC50 was 40 nM.
`COCCCOc1cc2c(nc1C1CCOCC1)-c1[nH]c(=O)c(C(=O)O)c(O)c1C(C(C)C)CO2` (stereo not drawn) [Example 79, 8-Hydroxy-7-isopropyl-3-(3-methoxypropoxy)-10-oxo-2-(tetrahydro-2H-pyran-4-yl)-6,7,10,11-tetrahydrooxepino[3,2-b:4,5-b′]dipyridine-9-carboxylic acid] gave an EC50 of 5000 nM.
For `COCCCOc1cc2c(nc1CCOC)-c1[nH]c(=O)c(C(=O)O)c(O)c1C(C(C)C)CO2` (stereo not drawn) [Example 84, 8-Hydroxy-7-isopropyl-2-(2-methoxyethyl)-3-(3-methoxypropoxy)-10-oxo-6,7,10,11-tetrahydrooxepino[3,2-b:4,5-b′]dipyridine-9-carboxylic acid], the EC50 was 1200 nM.
With `COCCCOc1cc2c(cc1OC)-c1[nH]c(=O)c(C(=O)O)c(OC)c1C(C(C)C)C2` (stereo not drawn) [Example 87, 5-Isopropyl-4,9-dimethoxy-8-(3-methoxypropoxy)-2-oxo-1,2,5,6-tetrahydrobenzo[h]quinoline-3-carboxylicacid] the EC50 was 85 nM.
`COCCCOc1cc2c(cc1OC)-c1[nH]c(=O)c(C(=O)O)c(OCCOC)c1C(C(C)C)C2` (stereo not drawn) [Example 88, 5-Isopropyl-9-methoxy-4-(2-methoxyethoxy)-8-(3-methoxypropoxy)-2-oxo-1,2,5,6-tetrahydrobenzo[h]quinoline-3-carboxylic acid] gave an EC50 of 4700 nM.
`COCCCOc1cc2c(cc1OC)-c1[nH]c(=O)c(C(=O)O)c(OCCN(C)C)c1C(C(C)C)C2` (stereo not drawn) [Example 89, 4-(2-(Dimethylamino)ethoxy)-5-isopropyl-9-methoxy-8-(3-methoxypropoxy)-2-oxo-1,2,5,6-tetrahydrobenzo[h]quinoline-3-carboxylic acid] was tested, and the EC50 was 4600 nM.
In the case of `COCCCOc1cc2c(cc1OC)-c1[nH]c(=O)c(C(=O)O)c(OCCO)c1C(C(C)C)C2` (stereo not drawn) [Example 90, 4-(2-Hydroxyethoxy)-5-isopropyl-9-methoxy-8-(3-methoxypropoxy)-2-oxo-1,2,5,6-tetrahydrobenzo[h]quinoline-3-carboxylicacid], the EC50 is reported as 11000 nM.
Compound `CCOc1c2c([nH]c(=O)c1C(=O)O)-c1cc(OC)c(OCCCOC)cc1CC2C(C)C` (stereo not drawn) [Example 91, 4-Ethoxy-5-isopropyl-9-methoxy-8-(3-methoxypropoxy)-2-oxo-1,2,5,6-tetrahydrobenzo[h]quinoline-3-carboxylicacid] has an EC50 of 1700 nM.
For `COCCCOc1cc2c(nc1OC)-c1[nH]c(=O)c(C(=O)O)c(OC)c1C(C(C)(C)C)C2` (stereo not drawn) [Example 92, 5-(tert-Butyl)-4,9-dimethoxy-8-(3-methoxypropoxy)-2-oxo-1,2,5,6-tetrahydro-1,10-phenanthroline-3-carboxylic acid], the EC50 was 640 nM.
In the case of `COCCCOc1cc2c(nc1C1CC1)-c1[nH]c(=O)c(C(=O)O)c(O)c1C(C(C)C)CO2` (stereo not drawn) [Example 93, 2-Cyclopropyl-8-hydroxy-7-isopropyl-3-(3-methoxypropoxy)-10-oxo-6,7,10,11-tetrahydrooxepino[3,2-b:4,5-b′]dipyridine-9-carboxylic acid], the EC50 is reported as 120 nM.
`COCCCOc1cc2c(cc1C1CCOCC1)-c1[nH]c(=O)c(C(=O)O)c(O)c1[C@H](C(C)C)CO2` [Example 94, (S)-4-Hydroxy-5-isopropyl-9-(3-methoxypropoxy)-2-oxo-10-(tetrahydro-2H-pyran-4-yl)-1,2,5,6-tetrahydrobenzo[2,3]oxepino[4,5-b]pyridine-3-carboxylic acid] gave an EC50 of 730 nM.
